# Measured values reported in patent publication US20230330112A1, “COMPOSITION AND TREATMENT FOR CANCER WITH MUTATIONS” (BRIDGE BIOTHERAPEUTICS, INC., priority 2022, published 2023).
# Assay: Phase 1 study of Compound A for NSCLC, safety
# Assay type: in vivo, human
# Procedure: A first-in-human phase 1 study is ongoing to evaluate the safety of Compound A, including a dose-escalation phase to characterize dose-limiting toxicities (DLTs) (FIG. 6) and determine the recommended phase 2 dose (NCT04820023). Eligibility criteria included advanced-stage NSCLC with an activating EGFR mutation and disease progression on at least one prior EGFR inhibitor. A measurable lesion was required for exploratory evaluation of efficacy. Starting from 20 mg QD (once daily; every day), Compound A dose levels were escalated after evaluating dose-DLT relationships and toxicity probabilities during the first 21 days of dosing.
# All enrolled patients underwent ctDNA analysis (Guardant360, Guardant Health) at screening and every 6 weeks throughout treatment, which was compared to imaging at the same time points. Changes in allelic frequency were calculated as per the proprietary algorithm of Guardant Health (7). Intra-patient dose-escalation to the next dose level was allowed. Plasma samples were collected at prespecified time points at cycle 2, Day 1 following multiple doses (steady state) of Compound A in the dose-escalation cohorts, and the plasma concentrations were determined by a validated LC-MS/MS method with the LLOQ established at 1 ng/mL.
smiles,measurement,setting,value
"COc1cc(N2CCC(N3CCN(C)CC3)CC2)ccc1Nc1ncc(Cl)c(Nc2ccccc2NS(C)(=O)=O)n1 [Compound A, N-(2-((5-chloro-2-((2-methoxy-4-(4-(4-methylpiperazin-1-yl)piperidin-1-yl)phenyl)amino)pyrimidin-4-yl)amino)phenyl)methanesulfonamide]","Anorexia, All grade, %",20 mg QD (N = 4),0%
same,"Anorexia, Grade ≥ 3, %",20 mg QD (N = 4),0%
same,"Any TEAE, All grade, %",20 mg QD (N = 4),75%
same,"Any TEAE, Grade ≥ 3, %",20 mg QD (N = 4),25%
same,"Constipation, All grade, %",20 mg QD (N = 4),0%
same,"Constipation, Grade ≥ 3, %",20 mg QD (N = 4),0%
same,"Diarrhea, All grade, %",20 mg QD (N = 4),0%
same,"Diarrhea, Grade ≥ 3, %",20 mg QD (N = 4),0%
same,"Dizziness, All grade, %",20 mg QD (N = 4),0%
same,"Dizziness, Grade ≥ 3, %",20 mg QD (N = 4),0%
same,"Dyspepsia, All grade, %",20 mg QD (N = 4),0%
same,"Dyspepsia, Grade ≥ 3, %",20 mg QD (N = 4),0%
same,"Nausea, All grade, %",20 mg QD (N = 4),0%
same,"Nausea, Grade ≥ 3, %",20 mg QD (N = 4),0%
same,"Neutropenia/Neutrophil count decreased, All grade, %",20 mg QD (N = 4),0%
same,"Neutropenia/Neutrophil count decreased, Grade ≥ 3, %",20 mg QD (N = 4),0%
same,"Platelet count decreased, All grade, %",20 mg QD (N = 4),0%
same,"Platelet count decreased, Grade ≥ 3, %",20 mg QD (N = 4),0%
same,"Serious TEAE, All grade, %",20 mg QD (N = 4),0%
same,"Serious TEAE, Grade ≥ 3, %",20 mg QD (N = 4),0%
same,"TEAE leading to Dose interruption, All grade, %",20 mg QD (N = 4),0%
same,"TEAE leading to Dose interruption, Grade ≥ 3, %",20 mg QD (N = 4),0%
same,"TEAE leading to Dose permanently discontinued, All grade, %",20 mg QD (N = 4),0%
same,"TEAE leading to Dose permanently discontinued, Grade ≥ 3, %",20 mg QD (N = 4),0%
same,"TEAE leading to Dose reduced, All grade, %",20 mg QD (N = 4),0%
same,"TEAE leading to Dose reduced, Grade ≥ 3, %",20 mg QD (N = 4),0%
same,"Vomiting, All grade, %",20 mg QD (N = 4),0%
same,"Vomiting, Grade ≥ 3, %",20 mg QD (N = 4),0%
same,"Anorexia, All grade, %",80 mg QD (N = 3),0%
same,"Anorexia, Grade ≥ 3, %",80 mg QD (N = 3),0%
same,"Any TEAE, All grade, %",80 mg QD (N = 3),67%
same,"Any TEAE, Grade ≥ 3, %",80 mg QD (N = 3),0%
same,"Constipation, All grade, %",80 mg QD (N = 3),33%
same,"Constipation, Grade ≥ 3, %",80 mg QD (N = 3),0%
same,"Diarrhea, All grade, %",80 mg QD (N = 3),0%
same,"Diarrhea, Grade ≥ 3, %",80 mg QD (N = 3),0%
same,"Dizziness, All grade, %",80 mg QD (N = 3),0%
same,"Dizziness, Grade ≥ 3, %",80 mg QD (N = 3),0%
same,"Dyspepsia, All grade, %",80 mg QD (N = 3),33%
same,"Dyspepsia, Grade ≥ 3, %",80 mg QD (N = 3),0%
same,"Nausea, All grade, %",80 mg QD (N = 3),0%
same,"Nausea, Grade ≥ 3, %",80 mg QD (N = 3),0%
same,"Neutropenia/Neutrophil count decreased, All grade, %",80 mg QD (N = 3),0%
same,"Neutropenia/Neutrophil count decreased, Grade ≥ 3, %",80 mg QD (N = 3),0%
same,"Platelet count decreased, All grade, %",80 mg QD (N = 3),0%
same,"Platelet count decreased, Grade ≥ 3, %",80 mg QD (N = 3),0%
same,"Serious TEAE, All grade, %",80 mg QD (N = 3),0%
same,"Serious TEAE, Grade ≥ 3, %",80 mg QD (N = 3),0%
same,"TEAE leading to Dose interruption, All grade, %",80 mg QD (N = 3),0%
same,"TEAE leading to Dose interruption, Grade ≥ 3, %",80 mg QD (N = 3),0%
same,"TEAE leading to Dose permanently discontinued, All grade, %",80 mg QD (N = 3),0%
same,"TEAE leading to Dose permanently discontinued, Grade ≥ 3, %",80 mg QD (N = 3),0%
same,"TEAE leading to Dose reduced, All grade, %",80 mg QD (N = 3),0%
same,"TEAE leading to Dose reduced, Grade ≥ 3, %",80 mg QD (N = 3),0%
same,"Vomiting, All grade, %",80 mg QD (N = 3),33%
same,"Vomiting, Grade ≥ 3, %",80 mg QD (N = 3),0%
same,"Anorexia, All grade, %",160 mg QD (N = 4),0%
same,"Anorexia, Grade ≥ 3, %",160 mg QD (N = 4),0%
same,"Any TEAE, All grade, %",160 mg QD (N = 4),75%
same,"Any TEAE, Grade ≥ 3, %",160 mg QD (N = 4),0%
same,"Constipation, All grade, %",160 mg QD (N = 4),25%
same,"Constipation, Grade ≥ 3, %",160 mg QD (N = 4),0%
same,"Diarrhea, All grade, %",160 mg QD (N = 4),0%
same,"Diarrhea, Grade ≥ 3, %",160 mg QD (N = 4),0%
same,"Dizziness, All grade, %",160 mg QD (N = 4),0%
same,"Dizziness, Grade ≥ 3, %",160 mg QD (N = 4),0%
same,"Dyspepsia, All grade, %",160 mg QD (N = 4),0%
same,"Dyspepsia, Grade ≥ 3, %",160 mg QD (N = 4),0%
same,"Nausea, All grade, %",160 mg QD (N = 4),25%
same,"Nausea, Grade ≥ 3, %",160 mg QD (N = 4),0%
same,"Neutropenia/Neutrophil count decreased, All grade, %",160 mg QD (N = 4),0%
same,"Neutropenia/Neutrophil count decreased, Grade ≥ 3, %",160 mg QD (N = 4),0%
same,"Platelet count decreased, All grade, %",160 mg QD (N = 4),0%
same,"Platelet count decreased, Grade ≥ 3, %",160 mg QD (N = 4),0%
same,"Serious TEAE, All grade, %",160 mg QD (N = 4),25%
same,"Serious TEAE, Grade ≥ 3, %",160 mg QD (N = 4),0%
same,"TEAE leading to Dose interruption, All grade, %",160 mg QD (N = 4),0%
same,"TEAE leading to Dose interruption, Grade ≥ 3, %",160 mg QD (N = 4),0%
same,"TEAE leading to Dose permanently discontinued, All grade, %",160 mg QD (N = 4),0%
same,"TEAE leading to Dose permanently discontinued, Grade ≥ 3, %",160 mg QD (N = 4),0%
same,"TEAE leading to Dose reduced, All grade, %",160 mg QD (N = 4),0%
same,"TEAE leading to Dose reduced, Grade ≥ 3, %",160 mg QD (N = 4),0%
same,"Vomiting, All grade, %",160 mg QD (N = 4),25%
same,"Vomiting, Grade ≥ 3, %",160 mg QD (N = 4),0%
same,Treatment-related adverse events of grade ≥3,320 mg QD,occurred
same,"Anorexia, All grade, %",320 mg QD (N = 3),33%
same,"Anorexia, Grade ≥ 3, %",320 mg QD (N = 3),0%
